System: Caco-2 cells
Assay: Caco-2 cell uptake assay of valsartan with Mrp2/P-gp inhibitors and irradiation
Settings: valsartan 10 μM, 5 Gy X-ray 24 h before

With CCCCC(=O)N(Cc1ccc(-c2ccccc2-c2nnn[nH]2)cc1)[C@H](C(=O)O)C(C)C [valsartan, Valsartan] the “valsartan uptake in Caco-2 cells, IR group compared with control group” value (1 h, p < 0.05) was “significant reduction” and the “valsartan uptake in Caco-2 cells, IR group compared with control group” value (2 h) was “no significant difference”.

From publication PMC11860126, “X-Ray Irradiation Induces Oxidative Stress and Upregulates Intestinal Nrf2-Mrp2 Pathway, Leading to Decreased Intestinal Absorption of Valsartan” (Pharmaceutics, 2025)
